Test results taken from patent US10653138B2, “Composition for attracting bed bugs” (London School of Hygiene & Tropical Medicine, priority 2015, dated 2020).

Tests used:
bed bug antennae = experiment: Coupled gas chromatography-electroantennography (GC-EAG) of volatile extract from bed bug-exposed paper; design: species or system Cimex lectularius; details: for Responses Total: males plus females, 20 insects tested; for Responses Females: number of females giving an EAG response to the peak; for Responses Females / Responses Males: volatile extract 1 μL; for Responses Males: number of males giving an EAG response to the peak; for electroantennogram (EAG) response: result in words; for Visual inspection (no of responses) >5 / Visual inspection (no of responses) >10 / Visual inspection (no of responses) >15: threshold of individuals responding; for Visual inspection (no of responses) Response: total EAG responses, Table 8; for Electrophysiology Auto method: bullet = marked under the Auto method
Source text: Experimental insects, unless otherwise stated, were mated males and females of C. lectularius that had been fed 7 to 14 days previously on heparinised sheep blood. The electrodes used to make recordings were Ag/AgCl wires (diameter 0.37 mm) inserted into glass pipettes, made from borosilicate glass capillaries (outer diameter 2.0 mm; inner diameter 1.16 mm). The glass pipettes were filled with Ringers solution (7.55 g NaCl, 0.64 g KCl, 0.22 g CaCl2, 1.73 g MgCl2 g, 0.86 g NaHCO3 and 0.61 g Na3PO4 L^−1 water). The bed bug was then chilled on ice for one minute before dissection. Preparations were held in a continuous, humidified, charcoal filtered air flow ([…]) coming from a glass tube, which was positioned 5 mm from the antennal preparation. Once the antennal preparation and EAG equipment were in position the microscope light was switched off.
The GC used was a HP-680N, containing a HP-1 column (30 m×0.32 mm; film thickness, 0.52 μm) with a COC injector, hydrogen carrier gas and a FID. The oven temperature was maintained at 40° C. for two min and then programmed at 5° C. min^−1 to 100° C. and then at 10° C. […] to 250° C. The end of the column was inserted into the centre of the main air flow so that the eluent went over the antennal preparation. […] Amplification of the signals was set at ×10,000. Signals were analysed using the computer-based software package, EAD 2000 (Syntech®, The Netherlands). The volatile extract (1 μL) from an air entrainment of bed bug-exposed papers (see Example 1) was injected onto the column. A solution of n-alkanes (C7-C25, 1 μL of 100 ng μL^−1) in hexane was also analysed to calculate the retention indices (RI) of any EAG-active peaks for comparison with GC and coupled GC-MS traces (Equation 1).
Electroantennographic (EAG) responses from the coupled gas chromatography-electroantennographic (GC-EAG) analysis of the volatile extract collected using air entrainment were determined by visual appearance. Coupled GC-EAG traces were examined visually on a light box to identify EAG responses and match them to peaks on the GC traces. A combination of characteristics including the amplitude and shape of the deflection from the baseline were used to identify EAG responses. For example, an EAG response is usually of greater amplitude than the background noise and it has a characteristic negative deflection followed by a quick positive deflection resulting in a short sharp response often of similar shape and position as the corresponding peak on the GC trace. Responses were matched between males and females separately onto master traces for each sex. The EAG-active peaks were labelled from 1 to 21. Male and female master traces were then overlaid to identify where consistent responses occurred in both sexes. Five or more individuals responding at the same retention time on the GC trace was considered to be a consistent EAG response and the corresponding peak on the GC trace was considered to be EAG-active. Three thresholds were used: greater than 5, greater than 10 or greater than 15 individuals responding to the same GC peak or at the same retention time. The traces were then subjected to manual or automated statistical analysis.

bed bugs [1] = experiment: Behavioural bioassay, dose responses of individual chemicals (Example 8); assay type: in vivo, Cimex lectularius; details: all doses 0.008× to 8000×
Method: Methods: The behavioural bioassay was as described by Weeks et al. 2011 and recorded using EthoVision and the methodology described by Weeks et al. 2013. For each chemical, (E)-2-octenal, (RS)-1-octen-3-ol and nonanal, seven doses were tested from 0.008× to 8000×, along with three controls. Each replicate was completed as a block of 10 treatments including: We are referring here to either 0.001×, 0.01×, 0.1×, 1×, 10×, 100× or 1000× the dose of (E)-2-octenal found naturally in the aggregation pheromone. For instance, an “8% solution” refers to an 8% dose of volatile extract (with the various different ratios of individual component). In each block the order of the treatments and the position of the odour pot were randomized. 10 blocks were completed for each chemical (n=10).

bed bugs [2] = details: cited from earlier work; for attraction of bed bugs to safe shelters: volatile components of aggregation pheromone

SMILES | Responses Total (bed bug antennae) | Responses Females (bed bug antennae) | Responses Males (bed bug antennae) | electroantennogram (EAG) response (bed bug antennae) | Visual inspection (no of responses) >5 (bed bug antennae) | Visual inspection (no of responses) >10 (bed bug antennae) | Visual inspection (no of responses) Response (bed bug antennae) | time spent above the odour pot compared to zero (bed bugs [1]) | Electrophysiology Auto method (bed bug antennae) | Visual inspection (no of responses) >15 (bed bug antennae) | arrestment of bed bugs (bed bugs [2]; less-volatile component) | attraction of bed bugs to safe shelters (bed bugs [2])
CCCCOCCOCCOC(C)=O [2-(2-Butoxyethoxy)-acetate ethanol, 2-(2-butoxyethoxy)ethyl acetate] | 12 | 5 | 7 | EAG-active | • (>5) | • (>10) | 12 |  |  |  |  | 
CC1=CCC2C(C1)C2(C)C (single isomer, unassigned) [3-Carene, 3-carene] | 11 | 7 | 4 | EAG-active | • (>5) | • (>10) | 11 |  |  |  |  | 
C=CC(O)CCCCC (racemic) [(RS)-1-Octen-3-ol, (RS)-1-octen-3-ol] | 11 | 7 | 4 | EAG-active | • (>5) | • (>10) | 11 | none of the (RS)-1-octen-3-ol doses resulted in significantly more |  |  |  | 
CCCCCCCCC(=O)O [Nonanoic acid, nonanoic acid] | 12 | 6 | 6 | EAG-active | • (>5) | • (>10) | 12 |  |  |  |  | 
CCCCCCCC=O (single isomer, unassigned) [Octanal, octanal] | 19 | 10 | 9 | EAG-active | • (>5) | • (>10) | 19 |  | • | • (>15) |  | 
CCCCCCCCC(C)=O [2-Decanone, 2-decanone] | 9 | 4 | 5 | EAG-active | • (>5) |  | 9 |  |  |  |  | 
NCCc1c[nH]cn1 [histamine] |  |  |  |  |  |  |  |  |  |  | causes their arrestment upon contact | 
CCCCCC/C=C/C=O [(E)-2-Nonenal, (E)-2-nonenal] | 13 | 8 | 5 | EAG-active | • (>5) | • (>10) | 13 |  | • |  |  | 
CCCCCC=O (single isomer, unassigned) [Hexanal, hexanal] | 9 | 4 | 5 | EAG-active | • (>5) |  | 9 |  |  |  |  | 
CCCCCCCC/C=C/C=O [(E)-2-Undecenal, (E)-2-undecenal] | 9 | 5 | 4 | EAG-active | • (>5) |  | 9 |  |  |  |  | 
C=C1C=CC(C(C)C)CC1 (single isomer, unassigned) [β-Phellandrene, β-phellandrene] | 11 | 6 | 5 | EAG-active | • (>5) | • (>10) | 11 |  |  |  |  | 
CCCCCCCCCCCC [Dodecane, dodecane] | 16 | 8 | 8 | EAG-active | • (>5) | • (>10) | 16 |  | • | • (>15) |  | 
O=Cc1ccccc1 (single isomer, unassigned) [Benzaldehyde, benzaldehyde] | 8 | 3 | 5 | EAG-active | • (>5) |  | 8 |  |  |  |  | 
CSSSC [dimethyl trisulfide] |  |  |  |  |  |  |  |  |  |  |  | attract bed bugs to safe shelters
CCCCC(C)=O [2-hexanone] |  |  |  |  |  |  |  |  |  |  |  | attract bed bugs to safe shelters
CC/C=C/C=C/C(C)=O (single isomer, unassigned) [(3E,5E)-Octadien-2-one, (3E,5E)-octadien-2-one] | 13 | 5 | 8 | EAG-active | • (>5) | • (>10) | 13 |  | • |  |  | 
C=C1/C=C/[C@H](C(C)C)CC/C(C)=C/CC1 [(S)-(−)-Germacrene D, (S)-(−)-germacrene D] | 14 | 7 | 7 | EAG-active | • (>5) | • (>10) | 14 |  |  |  |  | 
CCCCCCC=O (single isomer, unassigned) [Heptanal, heptanal] | 13 | 7 | 6 | EAG-active | • (>5) | • (>10) | 13 |  | • |  |  | 
CCC/C=C/C=O [(E)-2-hexenal] |  |  |  |  |  |  |  |  |  |  |  | attract bed bugs to safe shelters
CSSC [dimethyl disulfide] |  |  |  |  |  |  |  |  |  |  |  | attract bed bugs to safe shelters
CCCCCCCCCC=O [Decanal, decanal] | 12 | 5 | 7 | EAG-active | • (>5) | • (>10) | 12 |  |  |  |  | 
